{"source": "patent US8192962B2", "about": "“Processes for detecting toxic substances” (Daikin Industries, Ltd., priority 2001, dated 2012)", "system": "Energy system protein genes", "test": "DNA chip mRNA expression in yeast, energy system protein genes (Table 4)", "type": "cell-based, Saccharomyces cerevisiae S288C", "procedure,_shortened": "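S. cerevisiae S288C grown at 25° C in YPD were exposed in log phase for two hours to one toxic chemical at a growth-inhibiting, non-lethal concentration; untreated cells served as control. Poly(A) mRNA was reverse-transcribed with Cy3/Cy5-dUTP and hybridized to a whole-genome yeast DNA chip at 65° C for over 12 hours; values are fluorescence ratios versus untreated.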", "data": [{"substance": "manganese ethylenebis(dithiocarbamate) [(8)]", "values": [{"measurement": "The level of expressed mRNA in the presence of chemical substance/The level of expressed mRNA in the absence of chemical substance", "setting": "yeast gene YAL060W", "value": 0.9}, {"measurement": "The level of expressed mRNA in the presence of chemical substance/The level of expressed mRNA in the absence of chemical substance", "setting": "yeast gene YBL058W, cells incubated two hours with the chemical substance", "value": 1.2}, {"measurement": "The level of expressed mRNA in the presence of chemical substance/The level of expressed mRNA in the absence of chemical substance", "setting": "yeast gene YBL099W, cells incubated two hours with the chemical substance", "value": 0.8}, {"measurement": "The level of expressed mRNA in the presence of chemical substance/The level of expressed mRNA in the absence of chemical substance", "setting": "yeast gene YBR001C, cells incubated two hours with the chemical substance", "value": 1.3}, {"measurement": "The level of expressed mRNA in the presence of chemical substance/The level of expressed mRNA in the absence of chemical substance", "setting": "yeast gene YBR185C, cells incubated two hours with the chemical substance", "value": 1.1}, {"measurement": "The level of expressed mRNA in the presence of chemical substance/The level of expressed mRNA in the absence of chemical substance", "setting": "yeast gene YBR221C, cells incubated two hours with the chemical substance", "value": 0.8}, {"measurement": "The level of expressed mRNA in the presence of chemical substance/The level of expressed mRNA in the absence of chemical substance", "setting": "yeast gene YCL040W", "value": 0.7}, {"measurement": "The level of expressed mRNA in the presence of chemical substance/The level of expressed mRNA in the absence of chemical substance", "setting": "yeast gene YCR012W", "value": 0.8}, {"measurement": "The level of expressed mRNA in the presence of chemical substance/The level of expressed mRNA in the absence of chemical substance", "setting": "yeast gene YCR046C, cells incubated two hours with the chemical substance", "value": 0.9}, {"measurement": "The level of expressed mRNA in the presence of chemical substance/The level of expressed mRNA in the absence of chemical substance", "setting": "yeast gene YCR105W, cells incubated two hours with the chemical substance", "value": 1.4}, {"measurement": "The level of expressed mRNA in the presence of chemical substance/The level of expressed mRNA in the absence of chemical substance", "setting": "yeast gene YDL021W", "value": 2.7}, {"measurement": "The level of expressed mRNA in the presence of chemical substance/The level of expressed mRNA in the absence of chemical substance", "setting": "yeast gene YDL067C, cells incubated two hours with the chemical substance", "value": 1.1}, {"measurement": "The level of expressed mRNA in the presence of chemical substance/The level of expressed mRNA in the absence of chemical substance", "setting": "yeast gene YDL078C, cells incubated two hours with the chemical substance", "value": 1.0}, {"measurement": "The level of expressed mRNA in the presence of chemical substance/The level of expressed mRNA in the absence of chemical substance", "setting": "yeast gene YDL107W, cells incubated two hours with the chemical substance", "value": 1.8}, {"measurement": "The level of expressed mRNA in the presence of chemical substance/The level of expressed mRNA in the absence of chemical substance", "setting": "yeast gene YDL174C", "value": 0.8}, {"measurement": "The level of expressed mRNA in the presence of chemical substance/The level of expressed mRNA in the absence of chemical substance", "setting": "yeast gene YDL181W, cells incubated two hours with the chemical substance", "value": 0.6}, {"measurement": "The level of expressed mRNA in the presence of chemical substance/The level of expressed mRNA in the absence of chemical substance", "setting": "yeast gene YDR001C", "value": 0.9}, {"measurement": "The level of expressed mRNA in the presence of chemical substance/The level of expressed mRNA in the absence of chemical substance", "setting": "yeast gene YDR050C, cells incubated two hours with the chemical substance", "value": 1.3}, {"measurement": "The level of expressed mRNA in the presence of chemical substance/The level of expressed mRNA in the absence of chemical substance", "setting": "yeast gene YDR079W, cells incubated two hours with the chemical substance", "value": 2.6}, {"measurement": "The level of expressed mRNA in the presence of chemical substance/The level of expressed mRNA in the absence of chemical substance", "setting": "yeast gene YDR178W, cells incubated two hours with the chemical substance", "value": 0.9}, {"measurement": "The level of expressed mRNA in the presence of chemical substance/The level of expressed mRNA in the absence of chemical substance", "setting": "yeast gene YDR231C", "value": 1.3}, {"measurement": "The level of expressed mRNA in the presence of chemical substance/The level of expressed mRNA in the absence of chemical substance", "setting": "yeast gene YDR298C, cells incubated two hours with the chemical substance", "value": 1.2}, {"measurement": "The level of expressed mRNA in the presence of chemical substance/The level of expressed mRNA in the absence of chemical substance", "setting": "yeast gene YDR377W, cells incubated two hours with the chemical substance", "value": 1.3}, {"measurement": "The level of expressed mRNA in the presence of chemical substance/The level of expressed mRNA in the absence of chemical substance", "setting": "yeast gene YDR529C, cells incubated two hours with the chemical substance", "value": 1.3}, {"measurement": "The level of expressed mRNA in the presence of chemical substance/The level of expressed mRNA in the absence of chemical substance", "setting": "yeast gene YEL024W, cells incubated two hours with the chemical substance", "value": 1.0}, {"measurement": "The level of expressed mRNA in the presence of chemical substance/The level of expressed mRNA in the absence of chemical substance", "setting": "yeast gene YEL039C, cells incubated two hours with the chemical substance", "value": 1.1}, {"measurement": "The level of expressed mRNA in the presence of chemical substance/The level of expressed mRNA in the absence of chemical substance", "setting": "yeast gene YER178W", "value": 0.8}, {"measurement": "The level of expressed mRNA in the presence of chemical substance/The level of expressed mRNA in the absence of chemical substance", "setting": "yeast gene YFL057C", "value": 18.0}, {"measurement": "The level of expressed mRNA in the presence of chemical substance/The level of expressed mRNA in the absence of chemical substance", "setting": "yeast gene YFR053C", "value": 2.8}, {"measurement": "The level of expressed mRNA in the presence of chemical substance/The level of expressed mRNA in the absence of chemical substance", "setting": "yeast gene YGL018C, cells incubated two hours with the chemical substance", "value": 0.8}, {"measurement": "The level of expressed mRNA in the presence of chemical substance/The level of expressed mRNA in the absence of chemical substance", "setting": "yeast gene YGL062W", "value": 0.8}, {"measurement": "The level of expressed mRNA in the presence of chemical substance/The level of expressed mRNA in the absence of chemical substance", "setting": "yeast gene YGL187C, cells incubated two hours with the chemical substance", "value": 0.7}, {"measurement": "The level of expressed mRNA in the presence of chemical substance/The level of expressed mRNA in the absence of chemical substance", "setting": "yeast gene YGL191W, cells incubated two hours with the chemical substance", "value": 1.6}, {"measurement": "The level of expressed mRNA in the presence of chemical substance/The level of expressed mRNA in the absence of chemical substance", "setting": "yeast gene YGL205W, cells incubated two hours with the chemical substance", "value": 1.2}, {"measurement": "The level of expressed mRNA in the presence of chemical substance/The level of expressed mRNA in the absence of chemical substance", "setting": "yeast gene YGL256W, cells incubated two hours with the chemical substance", "value": 1.0}, {"measurement": "The level of expressed mRNA in the presence of chemical substance/The level of expressed mRNA in the absence of chemical substance", "setting": "yeast gene YGR043C", "value": 2.6}, {"measurement": "The level of expressed mRNA in the presence of chemical substance/The level of expressed mRNA in the absence of chemical substance", "setting": "yeast gene YGR062C, cells incubated two hours with the chemical substance, 25° C., YPD medium", "value": 0.8}, {"measurement": "The level of expressed mRNA in the presence of chemical substance/The level of expressed mRNA in the absence of chemical substance", "setting": "yeast gene YGR087C, cells incubated two hours with the chemical substance", "value": 0.8}, {"measurement": "The level of expressed mRNA in the presence of chemical substance/The level of expressed mRNA in the absence of chemical substance", "setting": "yeast gene YGR174C, cells incubated two hours with the chemical substance", "value": 1.6}, {"measurement": "The level of expressed mRNA in the presence of chemical substance/The level of expressed mRNA in the absence of chemical substance", "setting": "yeast gene YGR192C", "value": 1.1}, {"measurement": "The level of expressed mRNA in the presence of chemical substance/The level of expressed mRNA in the absence of chemical substance", "setting": "yeast gene YGR244C", "value": 1.8}, {"measurement": "The level of expressed mRNA in the presence of chemical substance/The level of expressed mRNA in the absence of chemical substance", "setting": "yeast gene YGR254W", "value": 1.4}, {"measurement": "The level of expressed mRNA in the presence of chemical substance/The level of expressed mRNA in the absence of chemical substance", "setting": "yeast gene YHR179W", "value": 3.3}, {"measurement": "The level of expressed mRNA in the presence of chemical substance/The level of expressed mRNA in the absence of chemical substance", "setting": "yeast gene YIL160C", "value": 1.2}, {"measurement": "The level of expressed mRNA in the presence of chemical substance/The level of expressed mRNA in the absence of chemical substance", "setting": "yeast gene YIR031C, cells incubated two hours with the chemical substance", "value": 1.0}, {"measurement": "The level of expressed mRNA in the presence of chemical substance/The level of expressed mRNA in the absence of chemical substance", "setting": "yeast gene YJL052W", "value": 1.5}, {"measurement": "The level of expressed mRNA in the presence of chemical substance/The level of expressed mRNA in the absence of chemical substance", "setting": "yeast gene YJL121C, cells incubated two hours with the chemical substance", "value": 1.0}, {"measurement": "The level of expressed mRNA in the presence of chemical substance/The level of expressed mRNA in the absence of chemical substance", "setting": "yeast gene YJL166W, cells incubated two hours with the chemical substance", "value": 1.4}, {"measurement": "The level of expressed mRNA in the presence of chemical substance/The level of expressed mRNA in the absence of chemical substance", "setting": "yeast gene YJL216C, cells incubated two hours with the chemical substance", "value": 1.9}, {"measurement": "The level of expressed mRNA in the presence of chemical substance/The level of expressed mRNA in the absence of chemical substance", "setting": "yeast gene YJR009C", "value": 1.1}]}]}
